Data published in US9550751B2, “Processes for the preparation of pesticidal compounds” (Dow AgroSciences LLC, priority 2013, dated 2017).
Where a name gives a salt, the structure may show the parent alone. Read-outs that look alike come from different tables or passages of the source.

Legend:
[1] = system: Green Peach Aphid (Myzus persicae) (MYZUPE); assay: Bioassays on Green Peach Aphid (GPA), foliar spray on cabbage seedlings; type: in vivo; details: 72 h, read-out: MYZUPE rating (% Control of Mortality)
Description: Several molecules disclosed herein were tested against GPA using procedures described below.
Cabbage seedling grown in 3-in pots, with 2-3 small (3-5 cm) true leaves, were used as test substrate. The seedlings were infested with […] (wingless adult and nymph stages) one day prior to chemical application. Four pots with individual seedlings were used for each treatment. Test compounds (2 mg) were dissolved in 2 mL of acetone/MeOH (1:1) solvent, forming stock solutions of 1000 ppm test compound. The stock solutions were diluted 5× with 0.025% Tween 20 in water to obtain the solution at 200 ppm test compound. A hand-held aspirator-type sprayer was used for spraying a solution to both sides of the cabbage leaves until runoff. Reference plants (solvent check) were sprayed with the diluent only containing 20% by volume acetone/MeOH (1:1) solvent. Treated plants were held in a holding room for three days at approximately 25° C. and ambient relative humidity (RH) prior to grading. Evaluation was conducted by counting the number of live aphids per plant under a microscope. Percent Control was measured by using Abbott's correction formula (W. S. Abbott, “A Method of Computing the Effectiveness of an Insecticide” J. Econ. Entomol 18 (1925), pp. 265-267) as follows. Corrected % Control=100*(X−Y)/X • where • X=No. of live aphids on solvent check plants and • Y=No. of live aphids on treated plants
The results are indicated in the table entitled “Table 1: GPA (MYZUPE) and sweetpotato whitefly-crawler (BEMITA) Rating Table”.

[2] = system: Sweetpotato Whitefly Crawler (Bemisia tabaci) (BEMITA); assay: Bioassays on Sweetpotato Whitefly Crawler, foliar spray on cotton plants; type: in vivo; details: read-out: BEMITA rating (% Control of Mortality)
Description: Cotton plants grown in 3-inch pots, with 1 small (3-5 cm) true leaf, were used at test substrate. The plants were placed in a room with whitely adults. Adults were allowed to deposit eggs for 2-3 days. After a 2-3 day egg-laying period, plants were taken from the adult whitefly room. Adults were blown off leaves using a hand-held Devilbliss sprayer (23 psi). Plants with egg infestation (100-300 eggs per plant) were placed in a holding room for 5-6 days at 82° F. and 50% RH for egg hatch and crawler stage to develop. Four cotton plants were used for each treatment. Compounds (2 mg) were dissolved in 1 mL of acetone solvent, forming stock solutions of 2000 ppm. The stock solutions were diluted 10× with 0.025% Tween 20 in water to obtain a test solution at 200 ppm. A hand-held Devilbliss sprayer was used for spraying a solution to both sides of cotton leaf until runoff. Reference plants (solvent check) were sprayed with the diluent only. Treated plants were held in a holding room for 8-9 days at approximately 82° F. and 50% RH prior to grading. Evaluation was conducted by counting the number of live nymphs per plant under a microscope.

## Nc1c[nH]nc1Cl [Compound 1a, 3-chloro-1H-pyrazol-4-amine hydrochloride]
[1]
  mortality at 200 ppm: 0 to 80%
[2]
  mortality at 200 ppm: 0 to 80%

## CCN(C(=O)CCSCCC(F)(F)F)c1c[nH]nc1Cl [Compound 4.7, N-(3-chloro-1H-pyrazol-4-yl)-N-ethyl-3-((3,3,3-trifluoropropyl)thio)propanamide]
[1]; 200 ppm spray on cabbage seedlings, graded after three days, Abbott's correction, live aphids
  mortality at 200 ppm: < 0%

## CCNc1c[nH]nc1Cl [Compound 7a, 3-Chloro-N-ethyl-1H-pyrazol-4-amine]
[1]
  mortality at 200 ppm: < 0%
